Columns and labels:
R15A or R15B = experiment: Selective binding towards R15A or R15B (based on SPR); parameters: species or system human
Protocol: In one embodiment, the compounds of formula IB inhibit PPP1R15A and PPP1R15B. Inhibition of PPP1R15A and PPP1R15B can be determined from binding analysis. For example, binding can be analysed using SPR (surface plasmon resonance) to obtain KD values. A PPP1R15A and PPP1R15B inhibitor may be defined as a compound where the difference in KD values between R15A and R15B is no more than about 3 fold.
Small molecules were stored as 50 mM stock solutions in 100% DMSO. Prior to determining binding constants, serial dilutions of either 12 or 8 concentrations of the compounds were prepared in the running buffer in a 96-well plate. Prior to each compound dilution series the regulatory subunit, MBP-R15A^325-636-His or MBP-R15B^340-698-His, was diluted to 10 μM in the running buffer and captured on the bio-PP1c surface at a flow rate of 30 μl/min for 1 minute to form the holophosphatase complex on the sensor chip surface. This was followed by 1 minute stabilization period, to wash off any unspecific binding. Then, without regenerating the surface, the compound dilution series was injected onto the surface of the chip at a flow rate of 30 μl/min for 1 minute, followed by 2 minutes dissociation time. After each dilution series the surface was regenerated using 3 M NaCl for 90 seconds. After regeneration, SPR responses generally returned to base levels and the bio-PP1c surface was ready for the next compound dilution series. In order to be able to correct for small variations in DMSO concentration between samples, eight solvent samples ranging from 0.06 to 8% DMSO were injected every 50th cycle. The flow cell temperature was 10° C.
Sensorgrams were analyzed using the Biacore T200 evaluation software and the binding constants determined based on a steady-state model. Kinetic experiments are carried out using different concentrations of the compound and their respective equilibrium binding levels determined.

protein synthesis = experiment: Assessment of translation rates (35S-methionine labelling); assay type: cell-based; conditions: for Effect on translation: 35S-methionine labelling of cells
Protocol: Cells (90,000 cells/ml) were plated in 12-well plates, treated as indicated, labelled with 100 μCi/mI 35S-methionine (Hartmann Analytic) for 10 minutes at 37° C., washed with ice-cold PBS and lysed in 120 μl Laemmli Buffer. Lysates were boiled at 95° C. for 5 minutes, sonicated and resolved on 4-12% Bolt Bis-Tris Plus Gels (Thermo Fisher Scientific). Gels were then stained with InstantBlue (Expedeon) and analyzed by phosphorimaging and quantified using ImageJ.
By monitoring translation rates as described above, the activities of R15A, R15B and R15A/B inhibitors can be defined as follows (also shown in FIG. 12). An R15A inhibitor has no effect on translation in unstressed cells but prolongs translation attenuation following stress. A selective R15B inhibitor transiently attenuate protein synthesis because R15A compensates for the inhibition of R15B.

[1] = tested on: dorsal root ganglia culture (DRG) from PMP22 mutant mice; experiment: Myelination in DRG explants from neuropathic mice; assay type: cell-based; conditions: 5 nM, 14 days
Protocol: Dorsal root ganglia (DRG) dissected from wild-type or Pmp22Tr-J (PMP22mutant) (Henry et al., Neuropathol. Exp. Neurol., 42, 688-706, 1983) embryo at 13.5 or […] (E13.5) were cultured on collagen coated coverslips in neurobasal media supplemented with 4 g/l glucose, 2 mM L-glutamine, 2% B27 supplement and 50 ng/ml neuronal growth factor (NGF) for 7 days. To differentiate Schwann cells and induce myelination, the cultured DRGs were then maintained in C-media (MEM media supplemented with 4 g/I glucose, 2 mM L-glutamine, 10% FCS, 50 ng/ml NGF). The C-media was replaced every other day with freshly added 50 μg/ml ascorbic acid ±5 nM of compound of Example I and cultured for 14 days for myelination by the Schwann cells. The cultured DRGs were then fixed in 4% paraformaldehyde and immunostained with MBP (Rat Myelin basic protein, 1/250 dilution, ab73498).
CMT is a group of myelin neuropathies caused by mutations in a number of genes. Mutations in the peripheral myelin protein PMP22 are the most common causes of CMT. A mutation in PMP22 (Trembler-J) causes the misfolding of PMP22 and a disease in mice that resembles CMT in human due to defects in myelin in the peripheral nervous system. Explants from PM P22 mutant mice recapitulates the severe hypomyelination observed in the human diseases. […] The compound of Example 1 will also be useful in the treatment of other myelin disorders.

HD-N171-82Q mice = experiment: Huntington's disease mouse model, motor performance (rotarod); assay type: in vivo; conditions: 2 mg/kg oral daily, 4 weeks
Protocol: To assess the efficacy of a compound of Example 1 in ameliorating a disease phenotype, 28-day old transgenic mice or littermate control were orally administered daily with a compound of Example 1 (2 mg/kg) or vehicle for a duration of 4 weeks. Disease progression was evaluated by weighting the mice during the treatment and by assessing their motor performances after 4 weeks of treatment.
Eight weeks old HD-N171-82Q mice and their wild-type littermates were first habituated for 1 min on a static rotor and 1 min at constant speed (4 rpm). Habituation was repeated. The test session consisted of four trials with 15 min intervals in between. For each trial 5 mice were placed on an accelerating rotor (4 to 40 rpm) and the latency to fall was recorded, with a maximum limit for individual animal set at 300 s.
Increasing folding by inhibition of PPP1R15B has the potential to benefit a very broad range of human pathologies. To test this, the inventors looked at Huntington's disease (HD), a proteostasis disease caused by accumulation of a misfolded protein, mutant Huntingtin. […] As HD has no cure to date, the inventors tested whether HD could be prevented by PPP1R15B inhibition.

PPP1R15A = experiment: Assay 3: expression of PPP1R15A in cells; assay type: cell-based, human; conditions: late time points after addition, FIG. 2B
Protocol: For immunoblots, HeLa cells (80,000 cells/ml) were plated in 12-well plates 24 hours before each experiment. Immediately after the indicated treatments, cells were lysed in 75 μl Laemmli Buffer, boiled at 95° C. for 5 minutes and sonicated. Proteins were separated and analysed as described (Tsaytler et al., Science, 332, 91-94, 2011) with the following antibodies: phospho-elf2α [pS52] and PPP1R15A/GADD34 (10449-1-AP; ProteinTech Group, 1/1000 dilution) and ATF4 (Sc-200 Santa Cruz).
Cells and organisms usually have mechanisms to compensate for deficiencies. The inventors therefore considered whether cells might compensate for PPP1R15B inhibition by inducing PPP1R15A. It has been previously reported that PPP1R15A levels are increased in the liver of PPP1R15B knock-out mice (Harding et al., Proc. Natl. Acad. Sci. U.S.A., 106, 1832-1837, 2009). It is unknown whether this compensatory response is specific to the liver or if it can happen in cells or other tissues. Furthermore, prior to this study, it was unknown whether PPP1R15A induction can be observed upon pharmacological inhibition of PPP1R15B, as they were no selective inhibitors of PPP1R15B prior to this study.

PP1 = molecular target: T1, PP1 (Homo sapiens, UniProt P36873); experiment: SPR binding to PP1 alone; conditions: SPR steady-state, bio-PP1c surface
T1 construct: made in house; host or cells: Sf9 insect cells (baculovirus, pDW464)
T1 sequence (P36873 whole entry): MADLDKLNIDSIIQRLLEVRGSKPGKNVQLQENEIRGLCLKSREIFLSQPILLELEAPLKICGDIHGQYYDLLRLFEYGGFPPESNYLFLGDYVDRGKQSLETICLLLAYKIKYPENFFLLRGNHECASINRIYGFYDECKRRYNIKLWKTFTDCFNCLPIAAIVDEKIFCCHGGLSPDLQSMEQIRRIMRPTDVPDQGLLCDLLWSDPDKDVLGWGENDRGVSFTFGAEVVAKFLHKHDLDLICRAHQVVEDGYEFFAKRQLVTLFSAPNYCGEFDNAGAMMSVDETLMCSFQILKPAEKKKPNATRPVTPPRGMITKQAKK

[H]/N=C(\N)NN=Cc1cccc(Cl)c1Cl [Compound 16, (E)-2-(2,3-dichlorobenzylidene)hydrazine-1-carboximidamide]
Selective binding towards R15A or R15B (based on SPR) (R15A or R15B): R15B (A “selective inhibitor” may be defined as a compound where the difference in KD values between R15A and R15B is greater than 3 fold) | Effect on translation (protein synthesis): Transient | protein synthesis rates (protein synthesis; unstressed cells, 10 μM, FIG. 12): transiently inhibits protein synthesis in unstressed cells | length of myelin internodes [1]: increased the length of myelin internodes in mutant DRG | motor performances (HD-N171-82Q mice): prevented the motor performances impairment | expression of PPP1R15A in cells (PPP1R15A): induce PPP1R15A

[H]/N=C(\N)NN=Cc1c(Cl)ccc(Cl)c1Cl [Compound 31, (E)-2-(2,3,6-trichlorobenzylidene)hydrazine-1-carboximidamide]
Selective binding towards R15A or R15B (based on SPR) (R15A or R15B): R15AB (A PPP1R15A and PPP1R15B inhibitor may be defined as a compound where the difference in KD values between R15A and R15B is no more than about 3 fold) | Effect on translation (protein synthesis): No | Kd (PP1): 12.6 ± 1.4 µM

[H]/N=C(\N)NN=Cc1cc(F)c(Cl)cc1Cl [Compound 7, (E)-2-(2,4-dichloro-5-fluorobenzylidene)hydrazine-1-carboximidamide]
Selective binding towards R15A or R15B (based on SPR) (R15A or R15B): R15AB (A PPP1R15A and PPP1R15B inhibitor may be defined as a compound where the difference in KD values between R15A and R15B is no more than about 3 fold) | Effect on translation ⇒ Inhibits (protein synthesis; target(s) concluded to be inhibited): R15AB | Kd (PP1): 13 µM

[H]/N=C(\N)NN=Cc1cccc(Cl)c1F [Compound 30, (E)-2-(3-chloro-2-fluorobenzylidene)hydrazine-1-carboximidamide]
Selective binding towards R15A or R15B (based on SPR) (R15A or R15B): R15AB (A PPP1R15A and PPP1R15B inhibitor may be defined as a compound where the difference in KD values between R15A and R15B is no more than about 3 fold) | Effect on translation (protein synthesis): No | Kd (PP1): 12.8 ± 0.08 µM
